Common to all, as to format: cell-based
The test system of assay [1] is MCF7 (PIK3CA E545K) cells. Nature of the assay: pS473 AKT assay, MCF7 cells. Particulars: Homo sapiens, pSer473 AKT, complete medium with 10% fetal bovine serum, 2 h treatment, read-out: MCF7_IC50. The protocol: (§1) Example A. pS473 AKT Assay Protocol
(§2) SKBR3 (PIK3CA WT), MCF7 (PIK3CA E545K), and T47D (PIK3CA H1047R) cells were cultured using 10-cm petri dishes with recommended medium plus 10% fetal bovine serum. One day before the assay, cells were seeded in 96-well plates at a final density of 10,000 cells per well. After overnight incubation in complete medium, cells were treated with different concentrations of PI3Kα inhibitors for 2 h. Cells were then fixed using 4% paraformaldehyde at room temperature for 20 min. Aspirate 4% paraformaldehyde, and wash cells using 1× regular phosphate buffered saline 3 times, 5 min each. Aspirate any residual phosphate buffered saline and block cells using 10% goat serum containing 1% bovine serum albumin and 0.3% Triton X-100 at room temperature for 1 h. Without any additional washing, primary antibodies (rabbit anti-pSer473 AKT) were diluted using blocking buffer and added at a final volume of 50 microliter per well. Keep assay plates with primary antibodies overnight at 4° C. Wash cells using 1× regular phosphate buffered saline 3 times, 5 min each. After the final wash, incubate cells with horseradish peroxidase-conjugated secondary antibodies (goat Anti-rabbit IgG) diluted using the same blocking buffer at room temperature for 1 h. Wash cells thoroughly using 1× regular phosphate buffered saline 3 times, 5 min each. Aspirate any residual phosphate buffered saline. Add Super-Signal ELISA Pico Chemiluminescent Substrate at a final volume of 100 microliter per well. Read plates on i3x Multi-Mode Microplate Reader and calculate IC50 values using GraphPad Prism software.

The subject of a further assay is SKBR3 (PIK3CA WT) cells. Nature of the assay: pS473 AKT assay, SKBR3 cells. Particulars: Homo sapiens, SK-BR-3, pSer473 AKT, complete medium with 10% fetal bovine serum, 2 h treatment, read-out: SKBR3_IC50. The protocol:
as §1, §2

For assay [2], the system named is T47D (PIK3CA H1047R) cells. In words: pS473 AKT assay, T47D cells. As to conditions: Homo sapiens, pSer473 AKT, complete medium with 10% fetal bovine serum, 2 h treatment, read-out: T47D_IC50. The protocol:
as §1, §2

For assay [3], the system named is T47D (PIK3CA H1047R) cells. In words: pS473 AKT assay with 2.5% FBS, T47D cells. Particulars: Homo sapiens, pSer473 AKT, DMEM with 2.5% FBS, 2 h treatment, read-out: T47D_IC50. The gist of the method:
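T47D (PIK3CA H1047R) cells were switched to DMEM with 2.5% FBS and exposed to compounds for 2 h. After paraformaldehyde fixation, pSer473 AKT was detected by in-cell ELISA (rabbit primary, HRP anti-rabbit secondary, chemiluminescence); IC50 values were fitted from the concentration series.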

The values that follow come from patent US20250270213A1, “PI3Ka INHIBITORS” (Synnovation Therapeutics, Inc., priority 2022, published 2025).

Some results are limits rather than exact numbers.

Consider `Cc1cc(C(C)Nc2ccccc2C(=O)O)c2c(c1)c(=O)n(C)c1c(-c3ccccc3)cnn21` (centres unmarked) [Compound I-2, 2-((1-(4,7-dimethyl-5-oxo-3-phenyl-4,5-dihydropyrazolo[1,5-a]quinazolin-9-yl)ethyl)amino)benzoic acid], for which the IC50 in assay [1] was over 30 µM; with SKBR3 (PIK3CA WT) cells, over 30 µM; in assay [2] it was 1000 to 5000 nM.
On to `C=Cc1cnn2c3c(C(C)Nc4ccccc4C(=O)O)cc(C)cc3c(=O)n(C)c12` (centres unmarked) [Compound I-3, 2-((1-(4,7-dimethyl-5-oxo-3-vinyl-4,5-dihydropyrazolo[1,5-a]quinazolin-9-yl)ethyl)amino)benzoic acid], for which the IC50 is over 30 µM in assay [1], over 30 µM with SKBR3 (PIK3CA WT) cells and 1000 to 5000 nM in assay [2].
`Cc1cc(C(C)Nc2ccccc2C(=O)O)c2c(c1)c(=O)n(C)c1ccnn21` (centres unmarked) [Compound I-1, 2-((1-(4,7-dimethyl-5-oxo-4,5-dihydropyrazolo[1,5-a]quinazolin-9-yl)ethyl)amino)benzoic acid]: the IC50 in assay [1] was over 30 µM; with SKBR3 (PIK3CA WT) cells it was over 30 µM; in assay [2], 1000 to 5000 nM.
On to `Cc1cc(C(C)Nc2ccc(Cl)nc2-c2cnn(C)c2)c2c(c1)c(=O)n(C)c1c2cnn1C1CCN(CC(C)(C)O)CC1` (centres unmarked) [Compound 172, 9-[1-[[6-Chloro-2-(1-methylpyrazol-4-yl)-3-pyridyl]amino]ethyl]-3-[1-(2-hydroxy-2-methyl-propyl)-4-piperidyl]-4,7-dimethyl-pyrazolo[3,4-c]isoquinolin-5-one], for which the IC50 in assay [3] is under 1000 nM.
Still for that read-out and setting: in the case of `CCn1ncc2c3c(C(C)Nc4ccc(Cl)nc4-c4cnn(C)c4)cc(C)cc3c(=O)n(C)c21` (centres unmarked) [Compound 50, 9-(1-((6-chloro-2-(1-methyl-1H-pyrazol-4-yl)pyridin-3-yl)amino)ethyl)-3-ethyl-4,7-dimethyl-3,4-dihydro-5H-pyrazolo[3,4-c]isoquinolin-5-one] it was under 1000 nM; in that of `Cc1cc(C(C)Nc2ccc(Cl)nc2-c2cnn(C)c2C)c2c(c1)c(=O)n(C)c1c(C(=O)N(C)C)ncn21` (centres unmarked) [Compound 129, 9-(1-((6-chloro-2-(1,5-dimethyl-1H-pyrazol-4-yl)pyridin-3-yl)amino)ethyl)-N,N,4,7-tetramethyl-5-oxo-4,5-dihydroimidazo[1,5-a]quinazoline-3-carboxamide], under 1000 nM.
Turning to `CCn1ncc2c3c(C(C)Nc4ccc(Cl)nc4N4CCN(C(C)=O)CC4)cc(C)cc3c(=O)n(C)c21` (centres unmarked) [Compound 80, 9-(1-((2-(4-Acetylpiperazin-1-yl)-6-chloropyridin-3-yl)amino)ethyl)-3-ethyl-4,7-dimethyl-3,4-dihydro-5H-pyrazolo[3,4-c]isoquinolin-5-one], the IC50 in assay [3] was under 1000 nM.
On the same count and under the same terms, then `CCc1ncn2c3c(C(C)Nc4ccc(Cl)nc4-c4noc(=O)[nH]4)cc(C)cc3c(=O)n(C)c12` (centres unmarked) [Compound 71, 3-(6-Chloro-3-((1-(3-ethyl-4,7-dimethyl-5-oxo-4,5-dihydroimidazo[1,5-a]quinazolin-9-yl)ethyl)amino)pyridin-2-yl)-1,2,4-oxadiazol-5(4H)-one], with under 1000 nM; and `Cc1cc(C(C)Nc2ccc(Cl)nc2-c2ccc(=O)n(C)c2)c2c(c1)c(=O)n1c3c2cnn3C(CO)CC1` (centres unmarked) [Example 289, 10-(1-((6-chloro-1′-methyl-6′-oxo-1′,6′-dihydro-[2,3′-bipyridin]-3-yl)amino)ethyl)-3-(hydroxymethyl)-8-methyl-4,5-dihydro-3H,6H-2,2a,5a-triazaaceanthrylen-6-one], with under 1000 nM.
Turning to `Cc1cc(C(C)Nc2ccc(Cl)nc2N2CCC(O)CC2)c2c(c1)c(=O)n(C)c1c2cnn1C1CCN(C)CC1` (centres unmarked) [Compound 167, 9-[1-[[6-chloro-2-(4-hydroxy-1-piperidyl)-3-pyridyl]amino]ethyl]-4,7-dimethyl-3-(1-methyl-4-piperidyl)pyrazolo[3,4-c]isoquinolin-5-one], in assay [3], the IC50 is under 1000 nM.
Same read-out and setting: then `Cc1cc(C(C)Nc2ccc(Cl)nc2-c2cnn(C)c2)c2c(c1)c(=O)n1c3c2cnn3C(CO)CC1` (centres unmarked) [Example 287, 10-(1-((6-chloro-2-(1-methyl-1H-pyrazol-4-yl)pyridin-3-yl)amino)ethyl)-3-(hydroxymethyl)-8-methyl-4,5-dihydro-3H,6H-2,2a,5a-triazaaceanthrylen-6-one], with under 1000 nM.
